Test results reported in patent publication US9771327B2, “Compounds and methods for the treatment of cystic fibrosis” (FLATLEY DISCOVERY LAB, LLC, priority 2013, dated 2017).
pEC50: −log10 of the molar value.

Target: T1, human ΔF508-CFTR (Homo sapiens, UniProt P13569, DEL508-508)
T1 construct: expressed in transfected cells
Assay: CFTR-YFP high throughput assay, CFTR corrector protocol (YFP iodide flux quench)
Format: cell-based
Settings: FRT cells expressing human ΔF508-CFTR and YFP-H148Q/I152L, 24-26 h incubation with compound; for Emax: normalized to the positive control, read-out: EMAX (% Efficacy, EMAX normalized to the positive control); for pEC50: stimulated with 20 μM Forskolin & 30 μM P3
Protocol: Assays for Detecting and Measuring the Effect of Compounds on dF508-CFTR Channels CFRT-YFP High Throughput Assay-CFTR Corrector Protocol:
This protocol is designed to selectively screen small molecule compounds for F508del CFTR corrector activities in the HTS YFP flux assay. In this protocol, the cells are incubated with testing compounds for 24 hours, washed with PBS, stimulated with forskolin and a standard potentiator, and read on a 384-well HTS plate reader, such as the Hamamatsu FDDD-6000.
YFP fluorescence intensity is acquired at high speed before and after iodide buffer is injected to the assay cells. Iodide enters the cells via active CFTR channels in the plasma membrane, and quenches the YFP fluorescence. The rate of fluorescence quenching is proportionally related to the total CFTR activities in the cell membrane. dF508-CFTR corrector accelerates YFP quenching by increasing the number of CFTR molecules in the testing cell plasma membrane.
This method was initially developed for bench top plate readers (Galietta et al., 2001), and was adapted to the HTS format (Sui et al. Assay Drug Dev. Technol. 2010).
Fisher Rat Thyroid (FRT) cells stably expressing both human ΔF508-CFTR and a halide-sensitive yellow fluorescent protein (YFP-H148Q/I152L 25,22) (Galietta et al., Am. J. Physiol Cell Physiol, 281(5), C1734, 2001) were cultured on plastic surface in Coon's modified Ham's F12 medium supplemented with FBS 10%, L-glutamine 2 mM, penicillin 100 U/ml, and streptomycin 100 μg/ml. G418 (0.75-1.0 mg/ml) and zeocin (3.2 ug/ml) were used for selection of FRT cells expressing ΔF508-CFTR and YFP. For primary screening, FRT cells were plated into 384-well black wall, transparent bottom microtiter plates (Costar; Corning Inc.) at a cell density of 20,000-40,000 per well. Test compound was applied to the cells at varying concentrations ranging from 2 nM-[…] in either a 2-fold or 3-fold dilution series. Cells were incubated in a cell culture incubator at 37° C. with 5% CO2 for 24-26 h. Assay plates were washed with DPBS media (Thermo, cat #SH30028.02) to remove unbound cells and compound. Stimulation media (25 μL) containing 20 μM Forskolin & 30 μM P3 [6-(Ethyl-phenyl-sulfonyl)-4-oxo-1,4-dihydro-quinoline-3-carboxylic acid 2-methoxy-benzylamide] in Hams F-12 coon's modified media was added to the plate wells and incubated at room temperature for 60-120 min. 25 μL of HEPES-PBS -I buffer (10 mM HEPES, 1 mM MgCl2, 3 mM KCl, 1 mM CaCl2, 150 mM NaI) was then added and fluorescence quench curves (Excitation 500 nm/Emission 540 nm; exposure 136 ms) were immediately recorded on an FDSS-6000 plate reader (Hamamatsu). Quench rates were derived from least squares fitting of the data as described by Sui et al. (2010).

T1 sequence (P13569 with tags, fused parts or gaps DEL508-508): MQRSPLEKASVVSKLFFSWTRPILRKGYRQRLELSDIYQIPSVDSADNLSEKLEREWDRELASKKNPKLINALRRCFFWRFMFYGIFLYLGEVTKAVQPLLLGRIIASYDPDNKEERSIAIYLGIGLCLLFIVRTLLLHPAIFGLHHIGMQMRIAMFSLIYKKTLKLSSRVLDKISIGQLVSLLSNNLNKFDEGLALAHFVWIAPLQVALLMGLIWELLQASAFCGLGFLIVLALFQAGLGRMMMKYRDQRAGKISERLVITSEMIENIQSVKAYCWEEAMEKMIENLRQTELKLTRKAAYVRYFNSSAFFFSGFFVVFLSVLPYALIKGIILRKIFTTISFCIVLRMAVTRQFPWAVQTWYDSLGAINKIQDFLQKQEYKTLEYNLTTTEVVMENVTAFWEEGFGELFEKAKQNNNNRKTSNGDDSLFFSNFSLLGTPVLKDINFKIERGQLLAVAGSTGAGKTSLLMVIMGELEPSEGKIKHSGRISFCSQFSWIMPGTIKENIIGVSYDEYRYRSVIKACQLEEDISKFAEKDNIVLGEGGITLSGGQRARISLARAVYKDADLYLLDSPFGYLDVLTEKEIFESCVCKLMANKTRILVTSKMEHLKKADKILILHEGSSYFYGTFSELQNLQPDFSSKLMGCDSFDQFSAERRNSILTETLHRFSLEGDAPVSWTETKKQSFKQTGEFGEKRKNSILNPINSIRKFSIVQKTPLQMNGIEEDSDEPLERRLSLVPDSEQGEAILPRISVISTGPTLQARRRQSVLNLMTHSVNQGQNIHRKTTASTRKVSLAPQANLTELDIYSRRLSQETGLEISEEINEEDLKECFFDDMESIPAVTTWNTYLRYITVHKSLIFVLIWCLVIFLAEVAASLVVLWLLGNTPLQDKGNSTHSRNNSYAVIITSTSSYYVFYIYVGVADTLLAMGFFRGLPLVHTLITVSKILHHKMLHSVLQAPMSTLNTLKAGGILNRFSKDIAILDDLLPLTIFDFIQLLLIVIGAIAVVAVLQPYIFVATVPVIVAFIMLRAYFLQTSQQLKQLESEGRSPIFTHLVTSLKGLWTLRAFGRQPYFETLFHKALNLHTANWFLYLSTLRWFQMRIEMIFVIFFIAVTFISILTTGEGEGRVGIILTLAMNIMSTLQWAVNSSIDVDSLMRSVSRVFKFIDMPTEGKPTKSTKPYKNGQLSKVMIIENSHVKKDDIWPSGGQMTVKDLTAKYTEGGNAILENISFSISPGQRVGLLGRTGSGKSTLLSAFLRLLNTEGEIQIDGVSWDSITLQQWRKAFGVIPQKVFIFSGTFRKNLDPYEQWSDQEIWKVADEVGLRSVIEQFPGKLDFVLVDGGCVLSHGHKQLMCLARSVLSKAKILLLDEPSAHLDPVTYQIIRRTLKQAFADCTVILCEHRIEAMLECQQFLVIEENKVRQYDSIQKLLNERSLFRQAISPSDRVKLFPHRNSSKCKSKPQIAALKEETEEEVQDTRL

Work on O=S(=O)(c1ccc2c(c1)OCO2)N1CCC(n2c(-c3ccccc3Cl)nc3cccnc32)CC1 [Example 1, 3-(1-(Benzo[d][1,3]dioxol-5-ylsulfonyl)piperidin-4-yl)-2-(2-chlorophenyl)-3H-imidazo[4,5-b]pyridine] yielded an Emax of 30 to 80% and a pEC50 of over 5.00.

Work on Cc1ccc2nc(-c3ccccc3Cl)n(C3CCN(S(=O)(=O)c4ccc5c(c4)OCO5)CC3)c2n1 [Example 2] yielded an Emax of 30 to 80% and a pEC50 of over 5.00.

COc1ccc(S(=O)(=O)N2CCC(n3c(-c4ccccc4)nc4ccc(C)nc43)CC2)cc1Cl [Example 3, 3-(1-((3-Chloro-4-methoxyphenyl)sulfonyl)piperidin-4-yl)-5-methyl-2-phenyl-3H-imidazo[4,5-b]pyridine] showed an Emax of 30 to 80% and a pEC50 of over 5.00.

Work on CCc1ccc(S(=O)(=O)N2CCC(n3c(-c4ccccc4)nc4cccnc43)CC2)cc1 [Example 4, 3-(1-((4-Ethylphenyl)sulfonyl)piperidin-4-yl)-2-phenyl-3H-imidazo[4,5b]pyridine] yielded an Emax of 30 to 80% and a pEC50 of under 4.70.

In the case of O=S(=O)(c1ccc2c(c1)OCO2)N1CCC(n2c(-c3ccccc3)nc3cccnc32)CC1 [Example 5, 3-(1-(Benzo[d][1,3]dioxol-5-ylsulfonyl)piperidin-4-yl)-2-phenyl-3H-imidazo[4,5-b]pyridine], the Emax was 30 to 80% and the pEC50 was over 5.00.

COc1ccc(S(=O)(=O)N2CCC(n3c(-c4ccccc4Cl)nc4cccnc43)CC2)cc1Cl [Example 6, 3-(1-((3-Chloro-4-methoxyphenyl)sulfonyl)piperidin-4-yl)-2-(2-chlorophenyl)-3H-imidazo[4,5-b]pyridine] was tested, and the Emax was 30 to 80% and the pEC50 was over 5.00.

In the case of Cc1ccc2nc(-c3ccccc3Cl)n(C3CCN(S(=O)(=O)c4ccc(C)c(Cl)c4)CC3)c2n1 [Example 7, 3-(1-((3-Chloro-4-methylphenyl)sulfonyl)piperidin-4-yl)-2-(2-chlorophenyl)-5-methyl-3H-imidazo[4,5-b]pyridine], the Emax was 30 to 80% and the pEC50 was over 5.00.

For COc1ccc(S(=O)(=O)N2CCC(n3c(-c4ccccc4Cl)nc4ccc(C)nc43)CC2)cc1F [Example 8, 2-(2-Chlorophenyl)-3-(1-((3-fluoro-4-methyoxyphenyl)sulfonyl)piperidin-4-yl)-5-methyl-3H-imidazo[4,5-b]pyridine], the Emax was 30 to 80% and the pEC50 was over 5.00.

Work on COc1ccc(S(=O)(=O)N2CCC(n3c(-c4ccccc4O)nc4cccnc43)CC2)cc1Cl [Example 9, 2-(3-(1-((3-Chloro-4-methoxyphenyl)sulfonyl)piperidin-4-yl)-3H-imidazo[4,5-b]pyridin-2-yl)phenol] yielded an Emax of 30 to 80% and a pEC50 of over 5.00.

Cc1ccc(S(=O)(=O)N2CCC(n3c(-c4ccccc4Cl)nc4cccnc43)CC2)cc1Cl [Example 10, 3-(1-((3-Chloro-4-methylphenyl)sulfonyl)piperidin-4-yl)-2-(2-chlorophenyl)-3H-imidazo[4,5-b]pyridine] was tested, and the Emax was 30 to 80% and the pEC50 was over 5.00.

COc1ccc(S(=O)(=O)N2CCC(n3c(-c4ccccc4F)nc4cccnc43)CC2)cc1Cl [Example 11, 3-(1-((3-Chloro-4-methoxyphenyl)sulfonyl)piperidin-4-yl)-2-(2-fluorophenyl)-3H-imidazo[4,5-b]pyridine] was tested, and the Emax was 30 to 80% and the pEC50 was over 5.00.

Work on COc1ccc(S(=O)(=O)N2CCC(n3c(-c4ccc(Cl)cc4Cl)nc4cccnc43)CC2)cc1Cl [Example 12, 3-(1-((3-Chloro-4-methoxyphenyl)sulfonyl)piperidin-4-yl)-2-(2,4-dichlorophenyl)-3H-imidazo[4,5-b]pyridine] yielded an Emax of 10 to 30% and a pEC50 of over 5.00.

For Cc1ccc2nc(-c3ccncc3Cl)n(C3CCN(S(=O)(=O)c4ccc5c(c4)OC(F)(F)O5)CC3)c2n1 [Example 13, 2-(3-Chloropyridin-4-yl)-3-(1-((2,2-difluorobenzo[d][1,3]dioxol-5-yl)sulfonyl)piperidin-4-yl)-5-methyl-3H-imidazo[4,5-b]pyridine], the Emax was 30 to 80% and the pEC50 was over 5.00.

For Cc1ccc2nc(-c3ccncc3Cl)n(C3CCN(S(=O)(=O)c4ccc5c(c4)OCO5)CC3)c2n1 [Example 14, 3-(1-(Benzo[d][1,3]dioxol-5-ylsulfonyl)piperidin-4-yl)-2-(3-chloropyridin-4-yl)-5-methyl-3H-imidazo[4,5-b]pyridine], the Emax was 10 to 30% and the pEC50 was under 4.70.

Cc1ccc2nc(-c3cccnc3Cl)n(C3CCN(S(=O)(=O)c4ccc5c(c4)OC(F)(F)O5)CC3)c2n1 [Example 15, 2-(2-Chloropyridin-3-yl)-3-(1-((2,2-difluorobenzo[d][1,3]dioxol-5-yl)sulfonyl)piperidin-4-yl)-5-methyl-3H-imidazo[4,5-b]pyridine] gave an Emax of 30 to 80% and a pEC50 of over 5.00.

In the case of COc1ccc(S(=O)(=O)N2CCC(n3c(-c4ccccc4)nc4cccnc43)CC2)cc1Cl [Example 16], the Emax was over 80% and the pEC50 was 4.70 to 5.00.

Cc1ccc(S(=O)(=O)N2CCC(n3c(-c4ccccc4)nc4cccnc43)CC2)cc1 [Example 17] gave an Emax of 30 to 80% and a pEC50 of over 5.00.

COc1ccc(S(=O)(=O)N2CCC(n3c(-c4ccccc4)nc4cccnc43)CC2)cc1F [Example 18] gave an Emax of 30 to 80% and a pEC50 of over 5.00.

Work on COc1ccc(S(=O)(=O)N2CCC(n3c(-c4ccccc4)nc4cccnc43)CC2)cc1 [Example 19] yielded an Emax of 30 to 80% and a pEC50 of over 5.00.

Cc1ccc(S(=O)(=O)N2CCC(n3c(-c4ccccc4)nc4cccnc43)CC2)cc1Cl [Example 20] was tested, and the Emax was 30 to 80% and the pEC50 was over 5.00.

For COc1ccc(C(=O)N2CCC(n3c(-c4ccccc4)nc4cccnc43)CC2)cc1Cl [Example 21], the Emax was 10 to 30% and the pEC50 was under 4.70.

Work on COc1ccc(S(=O)(=O)N2CCC(n3c(-c4cccc(Cl)c4)nc4cccnc43)CC2)cc1Cl [Example 22] yielded an Emax of 30 to 80% and a pEC50 of over 5.00.

Compound COc1ccc(S(=O)(=O)N2CCC(n3c(-c4cccc(C)c4)nc4cccnc43)CC2)cc1Cl [Example 23] has an Emax of over 80% and a pEC50 of over 5.00.

COc1ccc(S(=O)(=O)N2CCC(n3c(-c4ccc(C)cc4)nc4cccnc43)CC2)cc1Cl [Example 24] showed an Emax of 30 to 80% and a pEC50 of over 5.00.

In the case of COc1ccc(S(=O)(=O)N2CCC(n3c(C4CCCC4)nc4cccnc43)CC2)cc1Cl [Example 25], the Emax was 30 to 80% and the pEC50 was over 5.00.

With COc1ccc(S(=O)(=O)N2CCC(n3c(-c4ccccc4)nc4cc(C)cnc43)CC2)cc1Cl [Example 26] the Emax was 30 to 80% and the pEC50 was over 5.00.

In the case of COc1ccc(S(=O)(=O)N2CCC(n3c(-c4cccnc4)nc4cccnc43)CC2)cc1Cl [Example 27], the Emax was 30 to 80% and the pEC50 was over 5.00.

COc1ccc(S(=O)(=O)N2CCC(n3c(-c4ccncc4)nc4cccnc43)CC2)cc1Cl [Example 28] showed an Emax of 30 to 80% and a pEC50 of over 5.00.

COc1ccc(S(=O)(=O)N2CCC(n3c(-c4ccc(Cl)cc4)nc4cccnc43)CC2)cc1Cl [Example 29] was tested, and the Emax was 10 to 30% and the pEC50 was over 5.00.

Compound COc1ccc(S(=O)(=O)N2CCC(n3c(-c4ccccc4C)nc4cccnc43)CC2)cc1Cl [Example 30] has an Emax of 30 to 80% and a pEC50 of over 5.00.

With COc1ccc(S(=O)(=O)N2CCC(n3c(C4CCCCC4)nc4cccnc43)CC2)cc1Cl [Example 31] the Emax was 30 to 80% and the pEC50 was over 5.00.

COc1ccc(S(=O)(=O)N2CCC(n3c(-c4cnc[nH]4)nc4cccnc43)CC2)cc1Cl [Example 32] showed an Emax of 30 to 80% and a pEC50 of under 4.70.

For COc1ccc(S(=O)(=O)N2CCC(n3c(-c4nc5ccccc5[nH]4)nc4cccnc43)CC2)cc1Cl [Example 33], the Emax was 30 to 80% and the pEC50 was 4.70 to 5.00.

COc1ccc(S(=O)(=O)N2CCC(n3c(-c4ccc5[nH]cnc5c4)nc4cccnc43)CC2)cc1Cl [Example 34] gave an Emax of 30 to 80% and a pEC50 of over 5.00.

For COc1ccc(S(=O)(=O)N2CCC(n3c(-c4ccccc4)nc4cc(Cl)cnc43)CC2)cc1Cl [Example 35], the Emax was 30 to 80% and the pEC50 was over 5.00.

For COc1ccc(S(=O)(=O)N2CCC(n3c(-c4ccccc4)nc4ccc(Cl)nc43)CC2)cc1Cl [Example 36], the Emax was 10 to 30% and the pEC50 was over 5.00.
